Measurements as given in patent publication US20200078323A1, “METHOD OF TREATING OVARIAN CANCER USING ZETA-STAT” (University of South Florida, priority 2018, published 2020).
Entries after “also recorded” stand apart in the source; their conditions may differ.

Assays:
TOV21G cells = experiment: Proliferation of TOV21G cells treated with ζ-Stat (cellometer count, WST-1); type: cell-based; conditions: 24, 48 and 72 hours, control DMSO
Protocol: (§1) FIGS. 1A-1C. Proliferation curves for TOV21G cells treated with ζ-Stat. TOV21G cells were treated with ζ-Stat for 24, 48, and 72 hours. The control cells were treated with DMSO. (FIG. 1A) Treatments counted on a cellometer. (FIG. 1B) Standard curve for TOV21G cells in WST-1 reagent. (FIG. 1C) Treatments after 72 hours measured using WST-1 reagent.
(§2) Ovarian cancer is the most lethal gynecological cancer. […] The most common ovarian cancer diagnosis is epithelial ovarian carcinomas, which constitute for 85-90% of prognosis. Of epithelial ovarian carcinomas, clear cell ovarian carcinoma (CCOC) represents 5% of incidence. CCOC presents unique pathological features and has a high reoccurrence rate after treatment. An overexpression of atypical PKCs (PKC-ζ and PKC-ι/λ) has been observed in various malignant cell lines and is linked to pathways for cellular proliferation and invasion. Ovarian cell lines (TOV21G and ES-2) were treated with the atypical PKC-ζ inhibitor ζ-Stat (8-hydroxynaphthalene-1,3,6-trisulfonic acid) and assayed to determine the effects on proliferation and cellular invasion. […] Tumor growth in athymic female mice is decreased when treated with ζ-Stat and the mouse body weight is maintained. Thus, PKC-ζ is identified herein as a novel target in carcinogenesis and inhibition of this protein decreases the rate of proliferation.

ES-2 cells = experiment: Proliferation of ES-2 cells treated with ζ-Stat (cellometer count, WST-1); type: cell-based; conditions: 24, 48 and 72 hours, control DMSO
Protocol: as §1, with “2A-2C.” for “1A-1C.”, “ES-2” for “TOV21G”, “2A)” for “1A)”, “2B)” for “1B)”, “2C)” for “1C)”
as §2

PKC-ζ = target: T1, PKC-ζ (Homo sapiens, UniProt Q05513); experiment: Protein expression of PKC-ζ in TOV21G and ES-2 cells; type: cell-based; conditions: protein and genomic studies
T1 construct: Protein expression of PKC-ζ and RhoA of TOV21G and ES-2 cells when treated for 72 hours with DMSO and ζ-Stat; endogenous in cells; host or cells: TOV21G and ES-2 cells
T1 sequence (Q05513 1-592): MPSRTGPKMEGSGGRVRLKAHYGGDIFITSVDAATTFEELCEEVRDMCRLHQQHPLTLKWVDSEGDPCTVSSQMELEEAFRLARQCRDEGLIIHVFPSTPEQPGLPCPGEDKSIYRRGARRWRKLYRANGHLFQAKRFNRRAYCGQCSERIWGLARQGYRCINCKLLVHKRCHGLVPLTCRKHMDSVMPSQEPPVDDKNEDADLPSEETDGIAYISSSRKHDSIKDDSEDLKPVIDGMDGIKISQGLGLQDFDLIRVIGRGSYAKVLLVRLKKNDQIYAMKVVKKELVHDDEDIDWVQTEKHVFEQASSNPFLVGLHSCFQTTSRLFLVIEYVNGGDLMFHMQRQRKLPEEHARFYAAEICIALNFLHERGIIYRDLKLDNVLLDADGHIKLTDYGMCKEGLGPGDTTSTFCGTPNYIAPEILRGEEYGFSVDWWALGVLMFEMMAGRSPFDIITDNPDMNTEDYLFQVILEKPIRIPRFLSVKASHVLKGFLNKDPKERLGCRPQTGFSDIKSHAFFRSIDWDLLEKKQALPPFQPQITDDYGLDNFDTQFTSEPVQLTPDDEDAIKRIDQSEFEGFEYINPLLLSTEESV
Protocol: (§3) FIGS. 3A-3B. Protein expression of […] and […] of TOV21G and ES-2 cells when treated for 24, 48, and 72 hours with DMSO, ICA-1, and ζ-Stat. (FIG. 3A) TOV21G protein expression levels with treatments and quantified N=3. (FIG. 3B) ES-2 protein expression levels with treatments and quantified N=3.
(§4) FIGS. 4A-4B. Protein expression of PKC-ζ and RhoA of TOV21G and ES-2 cells when treated for 72 hours with DMSO and ζ-Stat and genomic expression of RhoA in TOV21G. (FIG. 4A) TOV21G and ES-2 protein expression after 72 hours of treatment. (FIG. 4B) TOV21G genomic expression of RhoA with ζ-Stat treatment after 72 hours of treatment.

PKC-ι = target: T2, PKC-ι (Homo sapiens, UniProt P41743); experiment: Protein expression of PKC-ι in TOV21G and ES-2 cells; type: cell-based; conditions: protein and genomic studies
T2 construct: endogenous in cells; host or cells: TOV21G and ES-2 cells
T2 sequence (P41743 1-596): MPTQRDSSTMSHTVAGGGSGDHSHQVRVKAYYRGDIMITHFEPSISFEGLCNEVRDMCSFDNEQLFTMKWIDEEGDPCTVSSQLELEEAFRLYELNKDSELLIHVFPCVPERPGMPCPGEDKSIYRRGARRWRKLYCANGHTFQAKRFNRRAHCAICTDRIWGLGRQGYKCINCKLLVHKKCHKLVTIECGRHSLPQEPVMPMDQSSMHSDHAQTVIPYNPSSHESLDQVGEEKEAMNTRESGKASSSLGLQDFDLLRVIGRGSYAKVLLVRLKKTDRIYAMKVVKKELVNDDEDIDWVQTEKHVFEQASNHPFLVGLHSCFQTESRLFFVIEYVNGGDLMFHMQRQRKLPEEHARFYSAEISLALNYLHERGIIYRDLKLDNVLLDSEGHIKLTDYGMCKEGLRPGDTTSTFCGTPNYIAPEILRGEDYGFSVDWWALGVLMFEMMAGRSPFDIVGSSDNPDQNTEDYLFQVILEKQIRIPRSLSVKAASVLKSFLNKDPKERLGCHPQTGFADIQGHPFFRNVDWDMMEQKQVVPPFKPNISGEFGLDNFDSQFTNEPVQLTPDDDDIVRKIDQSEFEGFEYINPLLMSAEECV
Protocol: as §3

RhoA = experiment: Protein and genomic expression of RhoA in TOV21G cells; type: cell-based; conditions: 72 hours
Protocol: as §4

CCOC cells = experiment: Wound healing / cellular invasion of CCOC cells; type: cell-based
Source text: as §2

TOV21G xenographs = experiment: TOV21G xenograph tumor growth in athymic female nude mice; type: in vivo; conditions: 20 mg/kg, every other day, subcutaneously intra-tumor and around the tumor site
Protocol: (§5) FIGS. 5A-5C. In-vivo TOV21G xenographs treated with 1×DPBS (vehicle, N=6) and 20 mg/kg ζ-Stat (N=6) for 30 days. (FIG. 5A) Tumor growth (mm^3) for the control mice and the treatment mice. The graph at the bottom represents the average body weight of the mice throughout the treatment period. (FIG. 5B) Tumors extracted at the endpoint of the experiment. The graph below represents the size of tumors from the treatment group represented as the percentage of the control. (FIG. 5C) Enzyme panel tested after the endpoint of the experiment. The bars represent glucose, BUN, ALT, AST and ALKP levels.
(§6) Effects of ζ-Stat on athymic mice ovarian xenograph were tested. Twelve athymic female nude mice weighing between 20-25 g and more than 10 weeks of age were used. The mice were divided into two groups after TOV21G cells (CRL-11730, American Type Culture Collection) were implanted (A million cells/mouse flank in 0.2 ml of media). The first group was the control group (n=6), which received 100 μl of DPBS (21-031-CM, Corning Cellgro, VA). The second group (n=6) received 100 μl of 20 mg/kg of ζ-Stat dissolved in DPBS. The tumor volume was calculated using the formula: length×width×width×½. Three days after implantation of the cells, the tumors were treated as of day 0. The treatments were administered every other day subcutaneously intra-tumor and around the tumor site for […].

[1] = Toxicity and body weight in xenograph mice (enzyme panel, body weight); type: in vivo
Protocol: as §5, §6

Compound: O=S(=O)(O)c1cc(O)c2c(S(=O)(=O)O)cc(S(=O)(=O)O)cc2c1 [ζ-Stat, 8-hydroxynaphthalene-1,3,6-trisulfonic acid]
- proliferation of TOV21G cells (TOV21G cells): decreased
- proliferation of ES-2 cells (ES-2 cells): decreased
- expression of PKC-ζ (PKC-ζ): knocks down the expression of PKC-ζ
- expression of PKC-ι (PKC-ι): not the expression of PKC-ι
- expression of RhoA at the genomic level (RhoA): knocks down the expression of RhoA
- expression of RhoA at the protein level (RhoA): knocks down the expression of RhoA
- wound healing (CCOC cells): decreased wound healing
- tumor growth (TOV21G xenographs): decreased; also recorded: reduced
- mouse body weight ([1]; athymic female mice treated with ζ-Stat): maintained
- toxic effect ([1]; mice, 20 mg/kg, after 30 days of treatment): did not have a toxic effect
